For 23 compounds, fold change (FC), ED50 and CI results are on record in ChEMBL document CHEMBL4190243, “Natural alkaloids as P-gp inhibitors for multidrug resistance reversal in cancer” (Eur J Med Chem, 2017).

Residues, ends and D or L forms follow the SMILES beside them.

The species named for assay [1] is Homo sapiens. Nature of the assay: Inhibition of P-gp in human KBV1 cells assessed as potentiation of paclitaxel-induced cytotoxicity by measuring fold reduction in paclitaxel IC50 at 5 uM. It counts as cell-based.
The species entered for assay [2] is Homo sapiens. Nature of the assay: Inhibition of P-gp in human KBV1 cells assessed as potentiation of doxorubicin-induced cytotoxicity by measuring fold reduction in doxorubicin IC50 at 5 uM. It counts as cell-based.
The species entered for assay [3] is Homo sapiens. The experiment in a line: Inhibition of P-gp in human KBV1 cells assessed as potentiation of vinblastine-induced cytotoxicity by measuring fold reduction in vinblastine IC50 at 5 uM. Format: cell-based.
For assay [4], the species on record is Homo sapiens. The experiment in a line: Inhibition of P-gp in human CCRF-CEM/VLB100 cells assessed as potentiation of vincristine-induced cytotoxicity by measuring fold reduction in vincristine IC50.
For assay [5], the species on record is Homo sapiens. The experiment in a line: Inhibition of P-gp in human KBV1 cells assessed as potentiation of vinblastine-induced cytotoxicity by measuring fold reduction in vinblastine IC50 at 50 uM. Format: cell-based.
The species named for assay [6] is Homo sapiens. The experiment in a line: Inhibition of P-gp in human HCT116/VM46 cells assessed as potentiation of vinblastine-induced cytotoxicity by measuring fold reduction in vinblastine IC50. It counts as cell-based.
For assay [7], the species on record is Homo sapiens. The experiment in a line: Inhibition of P-gp in human SW620/AD300 cells assessed as potentiation of taxol-induced cytotoxicity by measuring fold reduction in taxol IC50. It counts as cell-based.
The species entered for assay [8] is Homo sapiens. The experiment in a line: Inhibition of P-gp in human SW620/AD300 cells assessed as potentiation of doxorubicin-induced cytotoxicity by measuring fold reduction in doxorubicin IC50. It counts as cell-based.
In assay [9] the test system is K562/A02. Nature of the assay: Inhibition of P-gp in human K562/A02 cells assessed as potentiation of doxorubicin-induced cytotoxicity by measuring fold reduction in doxorubicin IC50. Format: cell-based.
Assay [10] is filed under the species Homo sapiens. Nature of the assay: Inhibition of P-gp in human Bel7402/5-FU cells assessed as increase in intracellular accumulation of doxorubicin at 0.4 mg/ml preincubated for 48 hrs followed by doxorubicin addition measured after 2 hrs by FACS analysis relative to control. Format: cell-based. A general note: In flow cytometry, cells or beads pass a laser one at a time.

The species entered for assay [11] is Homo sapiens. The experiment in a line: Inhibition of P-gp in human Bel7402/5-FU cells assessed as increase in intracellular accumulation of Rh123 at 0.8 mg/ml preincubated for 48 hrs followed by Rh123 addition measured after 2 hrs by FACS analysis relative to control. Format: cell-based.
The species named for assay [12] is Homo sapiens. Nature of the assay: Inhibition of P-gp in human lung cancer cells assessed as potentiation of doxorubicin-induced cytotoxicity by measuring fold reduction in doxorubicin IC50. It counts as cell-based.
The species entered for assay [13] is Homo sapiens. Nature of the assay: Inhibition of MRP in P-gp null human lung cancer cells assessed as potentiation of doxorubicin-induced cytotoxicity by measuring fold reduction in doxorubicin IC50.
For assay [14], the species on record is Homo sapiens. The experiment in a line: Inhibition of MRP in human lung cancer cells assessed as potentiation of doxorubicin-induced cytotoxicity by measuring fold reduction in doxorubicin IC50. Format: cell-based.
In assay [15] the test system is NCI-H460. Nature of the assay: Inhibition of P-gp in human NCI-H460 resistant cells assessed as potentiation of doxorubicin-induced cytotoxicity by measuring fold reduction in doxorubicin IC50. Format: cell-based.
The species entered for assay [16] is Homo sapiens. The experiment in a line: Inhibition of P-gp in human Caco2 cells assessed as potentiation of doxorubicin-induced cytotoxicity by measuring fold reduction in doxorubicin IC50. Format: cell-based.
Assay [17] is filed under the species Homo sapiens. Nature of the assay: Inhibition of P-gp in human CEM/DOX5000 cells assessed as potentiation of doxorubicin-induced cytotoxicity by measuring fold reduction in doxorubicin IC50. It counts as cell-based.
Assay [18] is filed under the species Homo sapiens. Nature of the assay: Inhibition of P-gp in human SW620/DOX300 cells assessed as potentiation of doxorubicin-induced cytotoxicity by measuring fold reduction in doxorubicin IC50. It counts as cell-based.
Assay [19] deals with MES-SA/Dx5. Nature of the assay: Inhibition of P-gp in human MES-SA/Dx5 cells assessed as potentiation of paclitaxel-induced cytotoxicity. Format: cell-based.
Assay [20] is filed under the species Homo sapiens. The experiment in a line: Inhibition of P-gp in human KB/VCR cells assessed as potentiation of vincristine-induced cytotoxicity by measuring fold reduction in vincristine IC50 at 5 uM. It counts as cell-based.
The species entered for assay [21] is Homo sapiens. The experiment in a line: Inhibition of P-gp in human MCF7/DOX cells assessed as potentiation of doxorubicin-induced cytotoxicity by measuring fold reduction in doxorubicin IC50 at 5 uM. Format: cell-based.
In assay [22] the test system is K562/A02. Nature of the assay: Inhibition of P-gp in human K562/A02 cells assessed as potentiation of doxorubicin-induced cytotoxicity by measuring fold reduction in doxorubicin IC50 at 5 uM. It counts as cell-based.
The species entered for assay [23] is Homo sapiens. The experiment in a line: Inhibition of P-gp in human KB/VCR cells assessed as potentiation of vincristine-induced cytotoxicity by measuring fold reduction in vincristine IC50. It counts as cell-based.
For assay [24], the species on record is Homo sapiens. The experiment in a line: Inhibition of P-gp in human K562/VCR cells assessed as potentiation of doxorubicin-induced cytotoxicity by measuring fold reduction in doxorubicin IC50. Format: cell-based.
The species entered for assay [25] is Homo sapiens. Nature of the assay: Inhibition of P-gp in human A549/DDP cells assessed as potentiation of doxorubicin-induced cytotoxicity. It counts as cell-based.
The species named for assay [26] is Homo sapiens. The experiment in a line: Inhibition of P-gp in human MCF7/DOX cells assessed as potentiation of mitoxantrone-induced cytotoxicity by measuring fold reduction in mitoxantrone IC50 at 50 uM after 48 hrs by MTT assay. It counts as cell-based.
Assay [27] is filed under the species Homo sapiens. Nature of the assay: Inhibition of P-gp in human A549/PA cells assessed as synergistic cytotoxicity with paclitaxel after 48 hrs by SRB assay. Format: cell-based.
Assay [28] is filed under the species Homo sapiens. Nature of the assay: Inhibition of P-gp in human MCF7/DOX cells assessed as potentiation of doxorubicin-induced cytotoxicity by measuring doxorubicin ED50. It counts as cell-based.

Regarding `CCCC[C@@]12[C@@H]3C[C@H]4[C@H]5[C@H](C)/C(=C6/OC(=O)C(C)=C6OC)O[C@]5(O3)[C@@H]1CCN42`, the results for the fold change (FC) in assay [1], in [2] and in assay [3] were 7, 4 to 5 and 5, respectively.

Turning to `C=CC(C)(C)[C@@]12C[C@H]3c4nc5ccccc5c(=O)n4[C@H](C)C(=O)N3[C@@H]1N(C(C)=O)c1ccccc12`, the fold change (FC) in assay [4] is 700.

Turning to `CC[C@@H](O)[C@H]1CC[C@H]2O[C@H]3CCN1[C@@H]2[C@@H]1C3O/C(=C2\OC(=O)C(C)=C2OC)[C@H]1C` (stereo partly drawn), the fold change (FC) in [5] was 2.

Turning to `COc1ccc(/C=C/NC(=O)c2c(-c3cc(OC)c(OC)c(OC)c3)c(-c3cc(OC)c(OC)c(OC)c3)c(C(=O)N/C=C/c3ccc(OC)cc3)n2CCc2ccc(OC)cc2)cc1`, the fold change (FC) in [6] amounted to 66.

On to `C=C/C=C\[C@H](C)[C@H](OC(N)=O)[C@@H](C)[C@H](O)[C@@H](C)C/C(C)=C\[C@H](C)[C@@H](O)[C@@H](C)/C=C\[C@@H](O)C[C@@H]1OC(=O)[C@H](C)[C@@H](O)[C@H]1C`, for which the fold change (FC) in [7] came to 4.

In the case of `CN1c2ccccc2[C@@]23C[C@H]4C(=O)N5[C@H]6N(C[C@@]7(C)O[C@@H]7C2)c2ccccc2[C@@]6(C)C[C@H]5C(=O)N4[C@H]13`, in [8], the fold change (FC) was 2.

Take `CCCCCC(CC(C)=O)n1cnc2c(N)ncnc21` (stereo not drawn): in [9], the fold change (FC) is 1.5 to 2.7.

As for `CC(C)[C@H](NC(=O)[C@H](CO)NC(=O)[C@@H](N)Cc1ccc(O)cc1)C(=O)O` (H-Tyr-Ser-Val-OH), the fold change (FC) was 3 in assay [10] and 1 to 2 in assay [11].

For `C=CC(C)(C)[C@@]12C[C@H]3c4nc5ccccc5c(=O)n4CC(=O)N3[C@@H]1N(C(C)=O)c1ccccc12`, the results for the fold change (FC) in assay [12], in [13] and in [14] were 200, 15 and 66, respectively.

As for H-KILRGVCKKIMRTFLRRISKDILTGKK-OH, in assay [15], the fold change (FC) was 5.

In the case of `CN1[C@@H](CC(=O)c2ccccc2)CCC[C@H]1CC(O)c1ccccc1` (stereo partly drawn), the fold change (FC) is 3.5 in [16] and 2.5 to 3 in assay [17].

With `COC(=O)c1c(-c2ccc(O)cc2)c(-c2ccc(O)cc2)cn1CC(=O)c1ccc(OC)cc1`, the fold change (FC) in assay [18] came to 5.

As for `COc1ccc2c(c1)C(=O)c1c(OC)c(OC)c(OC)c3ccnc-2c13`, the ED50 in assay [19] was 0.03 µg/mL.

Regarding `CCCCC(CC(C)=O)n1cnc2c(N)ncnc21` (stereo not drawn), the fold change (FC) in [9] is 1.5 to 2.7.

As to `COC1=C(C)C(=O)O/C1=C1\O[C@@]23CCCN4CCC[C@@H](O2)[C@H]4[C@H]3[C@@H]1C`, in [5], the fold change (FC) came to 4.

With `C[n+]1cc2c3c(ccc2c2ccc4cc5c(cc4c21)OCO5)OCO3`, the fold change (FC) in assay [16] stood at 18.

With `CO[C@@]1(C)N(C/C=C/c2ccccc2)C(=O)C2=C[C@@]3(C(=O)N(C)c4ccccc43)C(=O)N21`, the fold change (FC) was 10 in [20], 42 in assay [21] and 16 in [22].

For `CC[C@]12CCCN[C@]13/C(=C\C(=O)OC)c1ccccc1N3C(=O)CC2`, the fold change (FC) in [23] was 4.7.

In the case of `O=C1CCC[C@@H]2[C@H]3CCCN4CCC[C@@H](CN12)[C@@H]34`, the fold change (FC) in assay [24] amounted to 2.2.

As for `O=C(/C=C/C=C/c1ccc2c(c1)OCO2)N1CCCCC1`, the fold change (FC) in assay [21] came out at 32; in assay [25], 14; in assay [26] it was 7.

`COc1ccc2c3c(c4cc(OC)c(OC)cc4c2c1)C[C@H]1CCCN1C3`: the CI in assay [27] stood at 0.45.

With `CCCCCCCCC(CC(=O)CCCCCCC(=O)O)n1cnc2c(N)ncnc21` (stereo not drawn), the fold change (FC) in assay [9] fell in the range of 1.5 to 2.7.

As to `CC(/C=C/C#C/C=C/C=C(\C)C(=O)N[C@@H](C)CO)=C\[C@@H](C)[C@@H](O)/C(C)=C/[C@@H](C)CCc1ccccc1`, in assay [28], the ED50 amounted to 0.2 nM.
